Assay results taken from PubChem BioAssay (NCI).
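Growth conditions: 96-well plates. Treatment: test compound, 48 hours, 5 concentrations. Analysis: linear interpolation between bracketing concentrations; unreached endpoints set to highest concentration. TGI: total growth inhibition.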

Tests used:
Assay in all cases: NCI-60 cell line screen, 48 h
[1] = system: NCI-H460 lung
[2] = system: IGROV1 ovarian
[3] = system: KM20L2 colon
[4] = system: 786-0 renal
[5] = system: RPMI-8226 leukemia
[6] = system: COLO 205 colon
[7] = system: CAKI-1 renal
[8] = system: SF-295 CNS
[9] = system: SK-MEL-2 melanoma
[10] = system: OVCAR-8 ovarian
[11] = system: XF 498 CNS
[12] = system: DMS 114 small cell lung
[13] = system: DLD-1 colon
[14] = system: NCI-H226 lung
[15] = system: UACC-257 melanoma
[16] = system: HOP-62 NSCLC
[17] = system: SK-MEL-5 melanoma
[18] = system: SK-OV-3 ovarian
[19] = system: SNB-19 CNS
[20] = system: SN12C renal
[21] = system: M14 melanoma
[22] = system: HCT-116 colon
[23] = system: U251 CNS
[24] = system: ACHN renal
[25] = system: NCI-H23 lung
[26] = system: A549 NSCLC
[27] = system: HL-60(TB) leukemia
[28] = system: MALME-3M melanoma
[29] = system: SK-MEL-28 melanoma
[30] = system: K-562 leukemia
[31] = system: UO-31 renal
[32] = system: CCRF-CEM leukemia
[33] = system: SF-268 CNS
[34] = system: HOP-92 NSCLC
[35] = system: OVCAR-4 ovarian
[36] = system: HCT-15 colon
[37] = system: TK-10 renal
[38] = system: HT29 colon
[39] = system: EKVX NSCLC
[40] = system: HCC-2998 colon
[41] = system: SW-620 colon
[42] = system: SR leukemia
[43] = system: KM12 colon
[44] = system: RXF 393 renal
[45] = system: UACC-62 melanoma
[46] = system: SNB-75 CNS
[47] = system: OVCAR-3 ovarian
[48] = system: M19-MEL melanoma
[49] = system: LXFL 529 NSCLC
[50] = system: OVCAR-5 ovarian
[51] = system: LOX IMVI melanoma
[52] = system: SF-539 CNS
[53] = system: MCF7 breast
[54] = system: MDA-N
[55] = system: T-47D breast
[56] = system: NCI/ADR-RES ovarian
[57] = system: MDA-MB-231 breast
[58] = system: PC-3 prostate
[59] = system: DU-145 prostate
[60] = system: MOLT-4 leukemia
[61] = system: MDA-MB-435
[62] = system: HS 578T breast
[63] = system: A498 renal
[64] = system: NCI-H522 lung
[65] = system: BT-549 breast

CCOC(=O)Nc1cc2nnc(-c3ccccc3)nc2c(N)n1 was tested, and the TGI [1] was 29.8 µM, the TGI [2] was > 100 µM and the TGI [3] was 20.4 µM. For the same compound, the TGI [4] was 27.1 µM, the TGI [5] was 74.3 µM and the TGI [6] was 40.5 µM. The TGI [7] was > 100 µM, the TGI [8] was 15.2 µM and the TGI [9] was > 100 µM. The TGI [10] was 76.4 µM, the TGI [11] was > 100 µM and the TGI [12] was > 100 µM. The TGI [13] was > 100 µM, the TGI [14] was 71.8 µM and the TGI [15] was > 100 µM. It also gave a TGI [16] of 37.6 µM, a TGI [17] of 35.7 µM and a TGI [18] of 39.9 µM. For the same compound, the TGI [19] was > 100 µM, the TGI [20] was > 100 µM and the TGI [21] was > 100 µM. The TGI [22] was 38.7 µM, the TGI [23] was > 100 µM and the TGI [24] was > 100 µM. It also gave a TGI [25] of 64.2 µM, a TGI [26] of 35.1 µM and a TGI [27] of 37.5 µM. For the same compound, the TGI [28] was 87.7 µM, the TGI [29] was > 100 µM and the TGI [30] was > 100 µM. The TGI [31] was 84.7 µM, the TGI [32] was > 100 µM and the TGI [33] was > 100 µM. For the same compound, the TGI [34] was 85.2 µM, the TGI [35] was 69.2 µM and the TGI [36] was > 100 µM. The TGI [37] was > 100 µM, the TGI [38] was 25.7 µM and the TGI [39] was > 100 µM. For the same compound, the TGI [40] was > 100 µM, the TGI [41] was 42.2 µM and the TGI [42] was 72.2 µM. For the same compound, the TGI [43] was > 100 µM, the TGI [44] was 53.5 µM and the TGI [45] was > 100 µM. The TGI [46] was 61.6 µM, the TGI [47] was 48.8 µM and the TGI [48] was > 100 µM. For the same compound, the TGI [49] was > 100 µM, the TGI [50] was 48.5 µM and the TGI [51] was 30.8 µM. For the same compound, the TGI [52] was 61.9 µM.
In the case of Cc1cc2nc(C(C)C(=O)c3ccc(Cl)cc3)c(=O)[nH]c2cc1C (stereo unspecified), the TGI [1] is reported as > 100 µM, the TGI [53] is reported as > 100 µM and the TGI [54] is reported as 40.4 µM. The TGI [2] was > 100 µM, the TGI [4] was 92.3 µM and the TGI [55] was > 100 µM. For the same compound, the TGI [5] was > 100 µM, the TGI [6] was 53.7 µM and the TGI [7] was > 100 µM. For the same compound, the TGI [8] was > 100 µM, the TGI [9] was > 100 µM and the TGI [10] was > 100 µM. The TGI [56] was > 100 µM, the TGI [14] was 95.1 µM and the TGI [57] was > 100 µM. For the same compound, the TGI [15] was > 100 µM, the TGI [16] was > 100 µM and the TGI [17] was > 100 µM. For the same compound, the TGI [18] was > 100 µM, the TGI [19] was > 100 µM and the TGI [20] was > 100 µM. The TGI [58] was > 100 µM, the TGI [59] was > 100 µM and the TGI [21] was > 100 µM. For the same compound, the TGI [22] was > 100 µM, the TGI [23] was > 100 µM and the TGI [24] was > 100 µM. For the same compound, the TGI [25] was > 100 µM, the TGI [26] was > 100 µM and the TGI [27] was > 100 µM. For the same compound, the TGI [28] was > 100 µM, the TGI [29] was > 100 µM and the TGI [30] was > 100 µM. The TGI [31] was > 100 µM, the TGI [60] was > 100 µM and the TGI [32] was > 100 µM. The TGI [33] was > 100 µM, the TGI [34] was > 100 µM and the TGI [35] was > 100 µM. The TGI [36] was > 100 µM, the TGI [37] was 75.2 µM and the TGI [38] was 66.4 µM. The TGI [61] was 49.6 µM, the TGI [39] was 64.3 µM and the TGI [40] was 33.1 µM. The TGI [41] was > 100 µM, the TGI [42] was 97.6 µM and the TGI [43] was > 100 µM. For the same compound, the TGI [62] was > 100 µM, the TGI [44] was > 100 µM and the TGI [45] was > 100 µM. For the same compound, the TGI [46] was > 100 µM, the TGI [63] was > 100 µM and the TGI [47] was > 100 µM. The TGI [64] was > 100 µM, the TGI [65] was > 100 µM and the TGI [50] was > 100 µM. For the same compound, the TGI [51] was > 100 µM and the TGI [52] was 93.1 µM.
